# Test results reported in patent US20130324513A1, “METHOD FOR TREATING ESOPHAGEAL CANCER” (Niiki Pharma Acquisition Corp. 2, priority 2010, published 2013).
# Read-outs that look alike come from different tables or passages of the source.
# Tests used:
# [1] = test system: human esophageal carcinoma cell line OE33; experiment: MTT Cell Proliferation Assay in OE33; format: cell-based
# Method: To test the activity of tris(8-quinolinolato)gallium(III), ATCC's MTT Cell Proliferation Assay® was performed using human esophageal carcinoma cell line OE33. Stock cultures were allowed to grow to 70-80% confluence for this study. The anti-proliferative activity of tris(8-quinolinolato)gallium(III) against the indicated cell line was evaluated in vitro using the ATCC's MTT Cell Proliferation Assay (Catalog No. 30-1010K). OE33 plates were seeded with 1,200 cells/well, and the cells were grown in RPMI1640 medium containing 1% (1M HEPES), 1% sodium pyruvate, 10% FBS and 1% penicillin/strep/glutamine. Cultures were maintained in a 37° C. humidified 5% CO2/95% air atmosphere. The cells were treated with tris(8-quinolinolato)gallium(III) at 1,000 μM, or a series of 4×dilutions thereof (250 μM, 62.5 μM, etc.). […] The plates were left overnight at room temperature in the dark and was read on a plate reader using SoftMax® Pro (version 5.2, Molecular Devices).
# The absorbance data was analyzed as follows: Absorbance values were converted to Percent of Control and plotted against test agent concentrations for IC50 calculations using SoftMax® Pro (version 5.2, Molecular Devices). […] Percent of Control values were calculated by dividing the absorbance values for each test well by the No Drug Control average (column 11 values; cells+vehicle control) and multiplying by 100. […]
# [2] = test system: human gastric cancer cell line NCI-N87; experiment: MTT Cell Proliferation Assay in NCI-N87; format: cell-based
# Method: To test the activities of tris(8-quinolinolato)gallium(III), ATCC's MTT Cell Proliferation Assay® was performed using human gastric cancer cell line NCI-N87 (differentiated carcinoma). Stock cultures were allowed to grow to 70-80% confluence for this study. The anti-proliferative activity of tris(8-quinolinolato)gallium(III), against the indicated cell line was evaluated in vitro using the ATCC's MTT Cell Proliferation Assay (Catalog No. 30-1010K). NCI-N87 was grown using RPMI1640 (Cell Gro 10-040-CV), with 1% of 1M HEPES, 1% sodium pyruvate, 1% of 45% glucose solution, 10% of heat-inactivated FBS and 1% of pen/strep/glutamine. NCI-N87 cell plates were seeded with 20E+03 cells/well and treated with tris(8-quinolinolato)gallium(III) at 1,000 μM, or a series of 4×dilutions thereof (250 μM, 62.5 μM, etc.). 100 μl of medium was removed from each well at 72 hours post-treatment and 10 μl MTT reagent was added to each well. The plates were incubated plate at 37° C. for 4 hours and then 100 μl of detergent was added. The plates were left overnight at room temperature in the dark and was read on a plate reader using SoftMax® Pro (version 5.2, Molecular Devices).
# The absorbance data was analyzed as follows: Absorbance values were converted to Percent of Control and plotted against test agent concentrations for IC50 calculations using SoftMax® Pro (version 5.2, Molecular Devices). The plate blank signal average was subtracted from all wells prior to calculating the Percent of Control. Percent of Control values were calculated by dividing the absorbance values for each test well by the No Drug Control average (column 11 values; cells+vehicle control) and multiplying by 100. Plots of Compound Concentration versus Percent of Control were analyzed using the 4-parameter equation to obtain IC50 values and other parameters that describe the sigmoidal dose response curve.
# The IC50 value for the test agents was estimated by curve-fitting the data using the following four parameter-logistic equation:
# wherein “Top” is the maximal % of control absorbance (100%) (Value “A” in FIG. 1, 88.3), “Bottom” is the minimal % of control absorbance at the highest agent concentration (down to zero) (Value “D” in FIG. 1, 20.8), Y is the Percent of Control absorbance, X is the test agent Concentration, IC50 is the concentration of agent that inhibits cell growth by 50% compared to the control cells (Value “C” in FIG. 1, 8.42e+03), n is the slope of the curve (Value “B” in FIG. 1, 2.31).
# [3] = NCI-N87, four parameter-logistic fit
compound,measurement,setting,value
[Ga+3].[O-]c1cccc2cccnc12.[O-]c1cccc2cccnc12.[O-]c1cccc2cccnc12 [tris(8-quinolinolato)gallium(III)],growth inhibition in MTT assay (FIG. 2),[1]; OE33,dose-dependent growth inhibition
same,IC50,"[1]; OE33 cell line, MTT, 72 hours post-treatment, read-out: IC50 (concentration of agent that inhibits cell growth by 50% compared to the control cells)",3.06 µM
same,growth inhibition in MTT assay (FIG. 1),[2]; NCI-N87,dose-dependent growth inhibition
same,"Bottom, minimal % of control absorbance at the highest agent concentration (Value ""D"" in FIG. 1)",[2]; [3],20.8 % of control
same,"Top, maximal % of control absorbance (Value ""A"" in FIG. 1)",[2]; [3],88.3 % of control
same,IC50,"[2]; NCI-N87, four parameter-logistic fit, X axis of FIG. 1 in nM, read-out: IC50 (Value ""C"" in FIG. 1)",8420 nM
same,IC50,"[2]; NCI-N87 cell line, MTT, 72 hours post-treatment, read-out: IC50 (concentration of agent that inhibits cell growth by 50% compared to the control cells)",8420 nM
